Assay results: PubChem BioAssay AID256 (DTP/NCI, 2004)
Several values for one entry are separate records, joined by “and”; a condition that tells them apart may be missing. Identical values can stand only once. Toxic doses and inconclusive results are not listed. The calls were made as follows: active = survival T/C of 150% or more; inactive = T/C below 125% in these data.

Tested on: CD2F1 mice, L1210 leukemia ip, survival T/C
Assay: NCI In Vivo Anticancer Drug Screen. Data for tumor model L1210 Leukemia (intraperitoneal) in CD2F1 (CDF1) mice
Details: higher = longer survival
Outline: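 Transplantable tumor in mice; compound-treated vs vehicle-treated groups. Read-out = treated/control ratio of the measured endpoint.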

[1] = endpoint: mean survival time, dose: 100.0 mg/kg/injection, schedule: Q01DX009 (ip), vehicle: Klucel (hydroxypropylcellulose) (HPC)
[2] = endpoint: mean survival time, dose: 100.0 mg/kg/injection, schedule: Q04DX003 (ip), vehicle: other
[3] = endpoint: mean survival time, dose: 200.0 mg/kg/injection, schedule: Q01DX009 (ip), vehicle: Klucel (hydroxypropylcellulose) (HPC)
[4] = endpoint: mean survival time, dose: 200.0 mg/kg/injection, schedule: Q04DX003 (ip), vehicle: other
[5] = endpoint: mean survival time, dose: 50.0 mg/kg/injection, schedule: Q01DX009 (ip), vehicle: saline with Tween-80
[6] = endpoint: mean survival time, dose: 100.0 mg/kg/injection, schedule: Q01DX009 (ip), vehicle: saline with Tween-80
[7] = endpoint: mean survival time, dose: 100.0 mg/kg/injection, schedule: Q04DX003 (ip), vehicle: saline with Tween-80
[8] = endpoint: mean survival time, dose: 100.0 mg/kg/injection, schedule: Q01DX001 (ip), vehicle: saline with Tween-80
[9] = endpoint: mean survival time, dose: 200.0 mg/kg/injection, schedule: Q01DX001 (ip), vehicle: saline with Tween-80
[10] = endpoint: mean survival time, dose: 400.0 mg/kg/injection, schedule: Q01DX001 (ip), vehicle: saline with Tween-80
[11] = endpoint: mean survival time, dose: 200.0 mg/kg/injection, schedule: Q04DX003 (ip), vehicle: saline with Tween-80
[12] = endpoint: mean survival time, dose: 200.0 mg/kg/injection, schedule: Q01DX009 (ip), vehicle: saline with Tween-80
[13] = endpoint: mean survival time, dose: 100.0 mg/kg/injection, schedule: Q04DX003 (ip), vehicle: saline
[14] = endpoint: mean survival time, dose: 200.0 mg/kg/injection, schedule: Q04DX003 (ip), vehicle: saline
[15] = endpoint: mean survival time, dose: 400.0 mg/kg/injection, schedule: Q04DX003 (ip), vehicle: saline
[16] = endpoint: mean survival time, dose: 400.0 mg/kg/injection, schedule: Q04DX003 (ip), vehicle: saline with Tween-80
[17] = endpoint: mean survival time, dose: 12.5 mg/kg/injection, schedule: Q01DX005 (ip), vehicle: other
[18] = endpoint: mean survival time, dose: 25.0 mg/kg/injection, schedule: Q01DX005 (ip), vehicle: other
[19] = endpoint: mean survival time, dose: 50.0 mg/kg/injection, schedule: Q01DX005 (ip), vehicle: other
[20] = endpoint: mean survival time, dose: 100.0 mg/kg/injection, schedule: Q01DX005 (ip), vehicle: other
[21] = endpoint: median survival time, dose: 12.5 mg/kg/injection, schedule: Q01DX009 (ip), vehicle: saline with Tween-80
[22] = endpoint: median survival time, dose: 25.0 mg/kg/injection, schedule: Q01DX009 (ip), vehicle: saline with Tween-80
[23] = endpoint: median survival time, dose: 50.0 mg/kg/injection, schedule: Q01DX009 (ip), vehicle: saline with Tween-80
[24] = endpoint: median survival time, dose: 100.0 mg/kg/injection, schedule: Q01DX009 (ip), vehicle: saline with Tween-80

Measured: T/C

CCCOC(=O)c1cc([N+](=O)[O-])cc([N+](=O)[O-])c1Sc1ncnc2nc[nH]c12
inactive: endpoint: mean survival time, dose: 0.63 mg/kg/injection, schedule: Q01DX005 (ip), vehicle: other 102 % of control | endpoint: mean survival time, dose: 1.25 mg/kg/injection, schedule: Q01DX005 (ip), vehicle: other 105 % of control | endpoint: mean survival time, dose: 2.5 mg/kg/injection, schedule: Q01DX005 (ip), vehicle: other 102 % of control | endpoint: mean survival time, dose: 5.0 mg/kg/injection, schedule: Q01DX005 (ip), vehicle: other 105 % of control | endpoint: mean survival time, dose: 10.0 mg/kg/injection, schedule: Q01DX005 (ip), vehicle: other 105 % of control | endpoint: mean survival time, dose: 20.0 mg/kg/injection, schedule: Q01DX005 (ip), vehicle: other 106 % of control | endpoint: mean survival time, dose: 40.0 mg/kg/injection, schedule: Q01DX005 (ip), vehicle: other 113 % of control

O=[N+]([O-])c1ccc(N=Cc2ccc3c(c2)OCO3)c(Br)c1
inactive: [1] 108 % of control | [2] 108 % of control | [3] 109 % of control | [4] 103 % of control | endpoint: mean survival time, dose: 400.0 mg/kg/injection, schedule: Q01DX009 (ip), vehicle: Klucel (hydroxypropylcellulose) (HPC) 109 % of control | endpoint: mean survival time, dose: 400.0 mg/kg/injection, schedule: Q04DX003 (ip), vehicle: other 103 % of control

CC(CNC1CCCCC1)OC(=O)c1ccc(N)cc1 (centres undefined)
inactive: endpoint: mean survival time, dose: 75.0 mg/kg/injection, schedule: Q01DX001 (ip), vehicle: saline 102 % of control

Cn1ccn(C2CCCCC2)c1=O
inactive: endpoint: mean survival time, dose: 25.0 mg/kg/injection, schedule: Q01DX009 (ip), vehicle: saline with Tween-80 98 % of control | endpoint: mean survival time, dose: 25.0 mg/kg/injection, schedule: Q04DX003 (ip), vehicle: saline with Tween-80 96 % of control | [5] 101 % of control | endpoint: mean survival time, dose: 50.0 mg/kg/injection, schedule: Q04DX003 (ip), vehicle: saline with Tween-80 100 % of control | [6] 95 % of control | [7] 91 % of control and 93 % of control

CC(=O)OC(C)(C)/C=C/C(=O)[C@](C)(O)[C@H]1[C@H](O)C[C@@]2(C)[C@@H]3CC=C4[C@@H](CC[C@H](O)C4(C)C)[C@]3(CO)C(=O)C[C@]12C
inactive: endpoint: mean survival time, dose: 0.6 mg/kg/injection, schedule: Q01DX009 (ip), vehicle: saline with Tween-80 105 % of control | endpoint: mean survival time, dose: 0.63 mg/kg/injection, schedule: Q04DX003 (ip), vehicle: saline with Tween-80 105 % of control | endpoint: mean survival time, dose: 1.2 mg/kg/injection, schedule: Q01DX009 (ip), vehicle: saline with Tween-80 105 % of control | endpoint: mean survival time, dose: 1.25 mg/kg/injection, schedule: Q04DX003 (ip), vehicle: saline with Tween-80 112 % of control | endpoint: mean survival time, dose: 2.4 mg/kg/injection, schedule: Q01DX009 (ip), vehicle: saline with Tween-80 107 % of control | endpoint: mean survival time, dose: 2.5 mg/kg/injection, schedule: Q04DX003 (ip), vehicle: saline with Tween-80 114 % of control

CCN(CC)C1=C(c2ccccc2)C(=O)C(=O)C1c1ccccc1 (centres undefined)
inactive: [8] 103 % of control | [9] 107 % of control | [10] 94 % of control

O=C(CC(O)(C(F)(F)F)C(F)(F)F)c1ccc(Cl)cc1
inactive: endpoint: mean survival time, dose: 50.0 mg/kg/injection, schedule: Q01DX009 (ip), vehicle: other 103 % of control | endpoint: mean survival time, dose: 100.0 mg/kg/injection, schedule: Q01DX009 (ip), vehicle: other 103 % of control | [7] 107 % of control | endpoint: mean survival time, dose: 200.0 mg/kg/injection, schedule: Q01DX009 (ip), vehicle: other 87 % of control | [11] 107 % of control

Cc1c(N)cc([N+](=O)[O-])c(C)c1[N+](=O)[O-]
inactive: [5] 110 % of control | [6] 104 % of control | [7] 98 % of control | [12] 117 % of control | [11] 98 % of control

CC(=O)Oc1c(C)ncc(C=O)c1C
inactive: endpoint: mean survival time, dose: 75.0 mg/kg/injection, schedule: Q01DX001 (ip), vehicle: other 101 % of control | endpoint: mean survival time, dose: 150.0 mg/kg/injection, schedule: Q01DX001 (ip), vehicle: other 100 % of control

CC(=O)CC(C)=O
inactive: [13] 103 % of control | [14] 94 % of control | [15] 100 % of control

O=C(O)CCN1C(=O)c2ccccc2C1=O
inactive: [7] 98 % of control | [11] 97 % of control | [16] 97 % of control

CCC1(C)CCC2(C)C(CCC3C(C)(CO)CCCC32O)C1 (centres undefined)
inactive: [8] 98 % of control | [9] 94 % of control | [10] 98 % of control

Nc1nc(-c2ccccc2)nc2c1=NC(c1ccccc1)N=2 (centres undefined)
inactive: [17] 96 % of control | [18] 98 % of control | [19] 98 % of control | [20] 93 % of control | endpoint: mean survival time, dose: 200.0 mg/kg/injection, schedule: Q01DX005 (ip), vehicle: other 93 % of control

CCCCC(C)(C)C
inactive: [7] 99 % of control | [11] 99 % of control | [16] 114 % of control

Cc1ccc(C(CS(=O)(=O)c2ccc(C)cc2)c2ccccc2)cc1 (centres undefined)
inactive: [13] 93 % of control | [14] 93 % of control | [15] 98 % of control

O=[N+]([O-])c1ccc(N2CCOCC2)c2c1no[n+]2[O-]
inactive: [21] 117 % of control | [22] 112 % of control | [23] 108 % of control | [24] 91 % of control

Nc1nc2c(c(=O)[nH]1)N1C(=O)N(c3ccc(C(=O)NC(CCC(=O)O)C(=O)O)cc3)CC1CN2 (centres undefined)
inactive: endpoint: mean survival time, dose: 100.0 mg/kg/injection, schedule: Q01DX001 (ip), vehicle: sodium bicarbonate 107 % of control | endpoint: mean survival time, dose: 200.0 mg/kg/injection, schedule: Q01DX001 (ip), vehicle: sodium bicarbonate 113 % of control | endpoint: mean survival time, dose: 400.0 mg/kg/injection, schedule: Q01DX001 (ip), vehicle: sodium bicarbonate 109 % of control

CCCCc1nc2c(O)ccc(O)c2nc1C
inactive: endpoint: mean survival time, dose: 18.75 mg/kg/injection, schedule: Q01DX009 (ip), vehicle: other 96 % of control | endpoint: mean survival time, dose: 37.5 mg/kg/injection, schedule: Q01DX009 (ip), vehicle: other 94 % of control | endpoint: mean survival time, dose: 75.0 mg/kg/injection, schedule: Q01DX009 (ip), vehicle: other 90 % of control

O=C1c2ccccc2C(=O)N1Cl
inactive: endpoint: mean survival time, dose: 50.0 mg/kg/injection, schedule: Q01DX009 (ip), vehicle: Klucel (hydroxypropylcellulose) (HPC) 96 % of control | endpoint: mean survival time, dose: 50.0 mg/kg/injection, schedule: Q04DX003 (ip), vehicle: other 100 % of control | [1] 89 % of control | [2] 104 % of control | [3] 93 % of control | [4] 110 % of control

O=C(/C=C/c1ccccc1)Nc1ccc(Cl)c(Cl)c1
inactive: endpoint: mean survival time, dose: 100.0 mg/kg/injection, schedule: Q04DX002 (ip), vehicle: saline with Tween-80 100 % of control | endpoint: mean survival time, dose: 200.0 mg/kg/injection, schedule: Q04DX002 (ip), vehicle: saline with Tween-80 91 % of control | endpoint: mean survival time, dose: 400.0 mg/kg/injection, schedule: Q04DX002 (ip), vehicle: saline with Tween-80 95 % of control

CCCCCC(=O)NNc1nc(N)nc2nonc12
inactive: endpoint: mean survival time, dose: 6.25 mg/kg/injection, schedule: Q01DX005 (ip), vehicle: other 109 % of control | [17] 97 % of control | [18] 105 % of control | [19] 97 % of control | [20] 100 % of control

COc1ccc2c(ccc3oc([N+](=O)[O-])cc32)c1
inactive: endpoint: median survival time, dose: 6.25 mg/kg/injection, schedule: Q01DX009 (ip), vehicle: saline with Tween-80 105 % of control | [21] 105 % of control | [22] 105 % of control | [23] 105 % of control | [24] 107 % of control | endpoint: median survival time, dose: 200.0 mg/kg/injection, schedule: Q01DX009 (ip), vehicle: saline with Tween-80 92 % of control

NC(N)=N/N=C/c1ccc(Cl)cc1
inactive: endpoint: mean survival time, dose: 20.0 mg/kg/injection, schedule: Q01DX009 (ip), vehicle: Klucel (hydroxypropylcellulose) (HPC) 100 % of control | endpoint: mean survival time, dose: 40.0 mg/kg/injection, schedule: Q01DX009 (ip), vehicle: Klucel (hydroxypropylcellulose) (HPC) 96 % of control

CCCCCCCCCCCCCCCC(=O)NCCOC(C)=O
inactive: [5] 89 % of control | [6] 92 % of control | [7] 92 % of control | [12] 93 % of control | [11] 95 % of control | [16] 97 % of control
